In patent US11524966B1 (Valo Early Discovery, Inc., priority 2017, dated 2022):

Target: T1, USP28 (His-tagged USP28-FL-mammalian) (Homo sapiens, UniProt Q96RU2)
T1 construct: Expression of USP28 (1-1077)-TEV-6*His (pTT5 vector); made in house; host or cells: Expi293f cells (pTT5 vector)
T1 sequence (Q96RU2 1-1077): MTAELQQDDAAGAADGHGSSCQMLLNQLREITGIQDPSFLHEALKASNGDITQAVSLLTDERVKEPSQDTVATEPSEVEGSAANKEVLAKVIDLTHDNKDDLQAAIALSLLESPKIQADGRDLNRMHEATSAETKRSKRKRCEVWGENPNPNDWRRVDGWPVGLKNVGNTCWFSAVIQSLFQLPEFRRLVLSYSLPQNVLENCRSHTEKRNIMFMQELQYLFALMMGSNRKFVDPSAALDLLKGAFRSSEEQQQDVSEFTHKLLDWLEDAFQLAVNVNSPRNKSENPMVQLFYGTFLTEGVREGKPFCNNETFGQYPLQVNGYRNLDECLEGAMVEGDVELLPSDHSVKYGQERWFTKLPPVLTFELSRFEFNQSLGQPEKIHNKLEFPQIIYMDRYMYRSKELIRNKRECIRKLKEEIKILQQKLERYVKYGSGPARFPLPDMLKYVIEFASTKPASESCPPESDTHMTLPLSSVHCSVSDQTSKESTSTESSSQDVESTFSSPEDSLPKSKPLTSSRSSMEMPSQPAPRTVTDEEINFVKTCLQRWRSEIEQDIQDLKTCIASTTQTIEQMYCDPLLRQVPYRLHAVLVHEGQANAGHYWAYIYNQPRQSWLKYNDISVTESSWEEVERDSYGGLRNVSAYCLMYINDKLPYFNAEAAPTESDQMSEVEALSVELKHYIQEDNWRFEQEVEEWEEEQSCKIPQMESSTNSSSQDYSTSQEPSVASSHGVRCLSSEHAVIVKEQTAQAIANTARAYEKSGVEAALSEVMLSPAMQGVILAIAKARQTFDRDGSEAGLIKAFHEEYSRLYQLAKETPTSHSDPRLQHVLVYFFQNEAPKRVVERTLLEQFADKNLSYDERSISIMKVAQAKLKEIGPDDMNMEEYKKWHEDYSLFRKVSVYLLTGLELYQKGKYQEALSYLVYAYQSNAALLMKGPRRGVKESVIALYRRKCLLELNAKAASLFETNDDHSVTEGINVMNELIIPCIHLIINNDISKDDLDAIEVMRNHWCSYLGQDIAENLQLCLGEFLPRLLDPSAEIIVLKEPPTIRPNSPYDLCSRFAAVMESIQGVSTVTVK
Assay: Ubiquitin-Rhodamine 110 Assay for USP28 Activity, Example A-1(a)
Assay type: biochemical
Conditions: Ubiquitin-Rhodamine 110 assay, format Example A-1(a); read-out: USP28 A-1(a) IC50 range
Outline: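 IC50 from 4-parameter logistic fit of percent inhibition versus no-enzyme and DMSO controls; compounds 25 μM to 1.3 nM, 3-fold. Ub-Rh110 cleavage (25 nM, below Km) by […] mammalian-expressed USP28-FL-His ran 45 min at room temperature, stopped with 10 mM citric acid, read ex 485/em 535.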

Question: `Cc1ccc2c(N)c(C(=O)N[C@@H]3CCc4c(ccc(N5CC6CCC(C5)N6)c4C#N)C3)sc2n1` (single isomer, unassigned) [Example 14-1] was tested. Which IC50 did it give?
Answer: 1 to 50 nM

Question: `Cc1ccc2c(N)c(C(=O)N[C@H]3CCc4c(ccc(N5CC6CCC(C5)N6)c4C#N)C3)sc2n1` (single isomer, unassigned) [Example 14-2] was tested. Which IC50 did it give?
Answer: 50 to 200 nM

Question: `Cc1ccc2c(N)c(C(=O)N[C@@H]3CCc4cc(N5CC6CCC(C5)N6)c(C#N)cc4C3)sc2n1` (single isomer, unassigned) [Example 14-3] was tested. Which IC50 did it give?
Answer: 200 to 2000 nM

Question: `Cc1ccc2c(N)c(C(=O)N[C@H]3CCc4cc(N5CC6CCC(C5)N6)c(C#N)cc4C3)sc2n1` (single isomer, unassigned) [Example 14-4] was tested. Which IC50 did it give?
Answer: 1 to 50 nM

Question: With `Cc1cnc2c(N)c(C(=O)N[C@@H]3CCc4c(ccc(N5CC6CCC(C5)N6)c4C#N)C3)sc2n1` (single isomer, unassigned) [Example 14-5] as the compound, how does the IC50 read?
Answer: 1 to 50 nM

Question: `Cc1cnc2c(N)c(C(=O)N[C@H]3CCc4c(ccc(N5CC6CCC(C5)N6)c4C#N)C3)sc2n1` (single isomer, unassigned) [Example 14-6] was tested. Which IC50 did it give?
Answer: 200 to 2000 nM

Question: Which IC50 does the source give for `Cc1cnc2c(N)c(C(=O)N[C@@H]3CCc4cc(N5CC6CCC(C5)N6)c(C#N)cc4C3)sc2n1` (single isomer, unassigned) [Example 14-7] here?
Answer: 200 to 2000 nM

Question: For `Cc1cnc2c(N)c(C(=O)N[C@H]3CCc4cc(N5CC6CCC(C5)N6)c(C#N)cc4C3)sc2n1` (single isomer, unassigned) [Example 14-8], which IC50 is on record?
Answer: 1 to 50 nM
